# Test results reported in ChEMBL document CHEMBL5137025, “Tuberculosis Drug Discovery: Challenges and New Horizons” (J Med Chem, 2022).
# Legend:
# A549 = test: Cytotoxicity against human A549 cells treated for 72 hrs by MTT assay; assay type: functional
# [1] = Metabolic stability in mouse liver microsome assessed as half life in presence of NADPH measured upto 60 mins by LC-MS/MS analysis; assay type: ADME; settings: liver microsomes
# [2] = tested on: Mycobacterium tuberculosis; test: Bactericidal activity against Mycobacterium tuberculosis H37Rv in acute Mtb infection BALB/c mouse model assessed as reduction in relative light unit at 100 mg/kg for 6 days; assay type: functional; settings: time 6 day
# [3] = tested on: Mycobacterium tuberculosis; test: microbe, parasite or virus in culture; settings: H37Rv
# Description: Antibacterial activity against Mycobacterium tuberculosis H37Rv assessed as inhibition of bacterial growth
# [4] = tested on: Mycobacterium tuberculosis; assay type: functional; settings: H37Rv, 336 h, time 14 day
# [5] = Cytotoxicity against human THP-1 cells assessed as reduction in cell viability treated for 96 hrs by MTT assay; assay type: toxicity, cell-based
# [6] = tested on: Mycobacterium tuberculosis; assay type: functional, H37Rv; settings: dose 100 mg/kg; route po; time 4 weeks
# [7] = tested on: Mycobacterium tuberculosis; assay type: functional; settings: H37Rv, time 14-21 day
# [8] = tested on: Mycobacterium tuberculosis; test: Antibacterial activity against Mycobacterium tuberculosis Erdman in acute Mtb infection BALB/c mouse model assessed as reduction in log10 CFU in lungs at 100 mg/kg, po qd via gavage for 4 weeks; assay type: functional
# [9] = tested on: Mycobacterium tuberculosis; assay type: functional; settings: H37Rv, time 6 day
# [10] = tested on: Mycobacterium tuberculosis; assay type: functional, H37Rv; settings: dose 150 mg/kg; route po; time 10 day
# HepG2 [11] = test: Cytotoxicity against human HepG2 cells assessed as reduction in cell viability treated for 3 days by resazurin dye based assay; assay type: functional; settings: HepG2, 72 h, time 3 day
# [12] = tested on: Mycobacterium tuberculosis; test: Antibacterial activity against Mycobacterium tuberculosis in chronic Mtb infection C3HeB/FeJ mouse model assessed as reduction in log10 CFU in lungs at 250 mg/kg, po via gavage for 2 weeks; assay type: functional
# [13] = tested on: Mycobacterium tuberculosis; test: Antibacterial activity against Mycobacterium tuberculosis CDC1551 infected in mouse J774 cells assessed as inhibition of bacterial growth at 20 uM incubated for 24 hrs relative to control; assay type: functional; design: scale not given: the % may be the effect or the level left
# [14] = Cytotoxicity against African green monkey Vero cells treated for 72 hrs by microplate reader method; assay type: toxicity, cell-based; settings: chlorocebus sabaeus
# [15] = Kinetic aqueous solubility of the compound; assay type: physicochemical; settings: buffer; read-out: Kinetic_solubility
# [16] = Metabolic stability in mouse liver microsomes assessed as half life; assay type: ADME, Microsome
# [17] = Protein binding in mouse plasma; assay type: ADME, cell-free; settings: read-out: PPB (converted)
# [18] = tested on: Mycobacterium tuberculosis; test: Antibacterial activity against Mycobacterium tuberculosis in acute Mtb infection C3HeB/FeJ mouse model assessed as reduction in log10 CFU in lungs at 250 mg/kg, po via gavage for 2 weeks; assay type: functional
# [19] = tested on: Mycolicibacterium smegmatis; test: Inhibition of ATP synthesis in Mycobacterium smegmatis derived membrane vesicle incubated for 60 mins by luciferase based assay; assay type: functional; settings: 1 h
# [20] = tested on: Mycobacterium tuberculosis; assay type: functional, H37Rv; settings: dose 100 mg/kg; route po; time 2 weeks
# [21] = tested on: Mycobacterium tuberculosis; assay type: functional; settings: H37Rv, 168 h, time 7 day
# [22] = tested on: Mycobacterium tuberculosis; assay type: functional, H37Rv; settings: dose 100 mg/kg; route po; time 3 weeks
# [23] = tested on: Mycobacterium tuberculosis; assay type: functional, H37Rv; settings: dose 50 mg/kg; route po; time 3 weeks
# [24] = tested on: Mycobacterium tuberculosis; assay type: functional; settings: H37Rv, 120 h, time 5 day
# [25] = tested on: Mycobacterium tuberculosis; test: Antibacterial activity against Mycobacterium tuberculosis Erdman in chronic Mtb infection BALB/c mouse model assessed as reduction in log10 CFU in lungs at 200 mg/kg, po via gavage for 30 days in presence of 1-aminobenzotriazole; assay type: functional; settings: time 30 day
# [26] = tested on: Mycobacterium tuberculosis; assay type: functional; settings: H37Rv, 216 h, time 9 day
# [27] = Cytotoxicity against African green monkey Vero cells treated for 2 days by Cell Titer Glo assay; assay type: toxicity, cell-based; settings: chlorocebus sabaeus, time 2 day
# [28] = Solubility of the compound in microbiological medium at pH 6.8; assay type: physicochemical
# [29] = Metabolic stability in human liver S9 microsomes assessed as half life in presence of NADPH by LC-MS/MS analysis; assay type: ADME
# [30] = Permeability in human Caco2 cells treated for 1 to 2 hrs by LC-MS/MS analysis; assay type: ADME, cell-based; settings: Caco-2, time 1-2 hrs, read-out: permeability
# [31] = Half life in BALB/c mouse at 200 mg/kg, po measured for 0.5 to 24 hrs by LC-MS analysis; assay type: ADME, organism-based; settings: in vivo, time 0.5-24 hrs
# [32] = tested on: Mycobacterium tuberculosis; test: Antibacterial activity against Mycobacterium tuberculosis Erdman in chronic Mtb infection BALB/c mouse model assessed as reduction in log10 CFU in lungs at 200 mg/kg, po via gavage for 30 days; assay type: functional; settings: time 30 day
# [33] = tested on: Mycobacterium tuberculosis; test: Antibacterial activity against Mycobacterium tuberculosis Erdman in chronic Mtb infection BALB/c mouse model assessed as reduction in log10 CFU in lungs at 100 mg/kg, po via gavage for 30 days in presence of 1-aminobenzotriazole; assay type: functional; settings: time 30 day
# [34] = tested on: Mycobacterium tuberculosis; assay type: functional, H37Rv; settings: dose 100 mg/kg; route po; time 4 weeks; remark: listed apart in the source
# HepG2 [35] = test: Cytotoxicity against human HepG2 cells treated for 48 hrs by resazurin dye based assay; assay type: functional
# Cytochrome P450 3A4 = Cytochrome P450 3A4 (Homo sapiens, UniProt P08684); test: Inhibition of CYP3A4 in human liver microsome using midazolam as substrate incubated for 10 mins in presence of NADP+ by LC-MS/MS analysis; assay type: ADME, microsomes
# Sequence of Cytochrome P450 3A4 (P08684 whole entry): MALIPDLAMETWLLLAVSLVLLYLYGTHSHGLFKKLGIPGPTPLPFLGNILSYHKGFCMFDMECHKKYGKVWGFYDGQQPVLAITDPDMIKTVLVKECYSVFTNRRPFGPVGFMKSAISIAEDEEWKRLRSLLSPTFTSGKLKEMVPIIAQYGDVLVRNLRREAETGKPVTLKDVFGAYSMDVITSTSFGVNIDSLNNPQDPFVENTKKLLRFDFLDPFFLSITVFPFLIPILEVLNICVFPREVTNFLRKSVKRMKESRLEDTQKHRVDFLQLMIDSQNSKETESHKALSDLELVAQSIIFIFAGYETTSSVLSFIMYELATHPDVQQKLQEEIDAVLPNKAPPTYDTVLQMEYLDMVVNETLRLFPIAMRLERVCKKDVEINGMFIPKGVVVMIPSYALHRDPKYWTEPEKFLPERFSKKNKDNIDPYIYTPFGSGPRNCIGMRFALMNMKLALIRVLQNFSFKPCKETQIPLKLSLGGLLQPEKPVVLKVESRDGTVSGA
# [36] = Metabolic stability in human liver microsomes assessed as compound remaining measured after 1 hr in presence of NADP+ by LC-MS/MS analysis; assay type: ADME, Microsome; settings: read-out: Stability
# [37] = Metabolic stability in mouse liver microsomes assessed as compound remaining measured after 1 hr in presence of NADP+ by LC-MS/MS analysis; assay type: ADME, Microsome; settings: read-out: Stability
# [38] = tested on: Mycobacterium tuberculosis; assay type: functional; settings: H37Rv
# [39] = tested on: Mycobacterium tuberculosis; assay type: functional, H37Rv; settings: dose 3.1 mg/kg; route po; time 4 weeks
# [40] = Cytotoxicity against African green monkey Vero cells assessed as reduction in cell viability treated for 72 hrs by CCK8 assay; assay type: toxicity, cell-based; settings: chlorocebus sabaeus
# [41] = Cytotoxicity against African green monkey Vero cells assessed as reduction in cell viability treated for 3 days by Cell Titer Glo assay; assay type: toxicity, cell-based; settings: chlorocebus sabaeus, time 3 day
# [42] = Half life in Sprague-Dawley rat at 10 mg/kg, po via gavage measured for 0.25 to 96 hrs by LC/MS analysis; assay type: ADME, organism-based; settings: in vivo, time 0.25-96 hrs
# [43] = Oral bioavailability in Sprague-Dawley rat at 10 mg/kg via gavage measured for 0.25 to 96 hrs by LC/MS analysis; assay type: ADME, organism-based; settings: in vivo, time 0.25-96 hrs
# [44] = molecular target: Voltage-gated inwardly rectifying potassium channel KCNH2 (Homo sapiens, UniProt Q12809); test: Inhibition of hERG expressed in human HEK293 cells by manual patch clamp method; assay type: toxicity, cell-based
# Sequence of Voltage-gated inwardly rectifying potassium channel KCNH2 (Q12809 whole entry): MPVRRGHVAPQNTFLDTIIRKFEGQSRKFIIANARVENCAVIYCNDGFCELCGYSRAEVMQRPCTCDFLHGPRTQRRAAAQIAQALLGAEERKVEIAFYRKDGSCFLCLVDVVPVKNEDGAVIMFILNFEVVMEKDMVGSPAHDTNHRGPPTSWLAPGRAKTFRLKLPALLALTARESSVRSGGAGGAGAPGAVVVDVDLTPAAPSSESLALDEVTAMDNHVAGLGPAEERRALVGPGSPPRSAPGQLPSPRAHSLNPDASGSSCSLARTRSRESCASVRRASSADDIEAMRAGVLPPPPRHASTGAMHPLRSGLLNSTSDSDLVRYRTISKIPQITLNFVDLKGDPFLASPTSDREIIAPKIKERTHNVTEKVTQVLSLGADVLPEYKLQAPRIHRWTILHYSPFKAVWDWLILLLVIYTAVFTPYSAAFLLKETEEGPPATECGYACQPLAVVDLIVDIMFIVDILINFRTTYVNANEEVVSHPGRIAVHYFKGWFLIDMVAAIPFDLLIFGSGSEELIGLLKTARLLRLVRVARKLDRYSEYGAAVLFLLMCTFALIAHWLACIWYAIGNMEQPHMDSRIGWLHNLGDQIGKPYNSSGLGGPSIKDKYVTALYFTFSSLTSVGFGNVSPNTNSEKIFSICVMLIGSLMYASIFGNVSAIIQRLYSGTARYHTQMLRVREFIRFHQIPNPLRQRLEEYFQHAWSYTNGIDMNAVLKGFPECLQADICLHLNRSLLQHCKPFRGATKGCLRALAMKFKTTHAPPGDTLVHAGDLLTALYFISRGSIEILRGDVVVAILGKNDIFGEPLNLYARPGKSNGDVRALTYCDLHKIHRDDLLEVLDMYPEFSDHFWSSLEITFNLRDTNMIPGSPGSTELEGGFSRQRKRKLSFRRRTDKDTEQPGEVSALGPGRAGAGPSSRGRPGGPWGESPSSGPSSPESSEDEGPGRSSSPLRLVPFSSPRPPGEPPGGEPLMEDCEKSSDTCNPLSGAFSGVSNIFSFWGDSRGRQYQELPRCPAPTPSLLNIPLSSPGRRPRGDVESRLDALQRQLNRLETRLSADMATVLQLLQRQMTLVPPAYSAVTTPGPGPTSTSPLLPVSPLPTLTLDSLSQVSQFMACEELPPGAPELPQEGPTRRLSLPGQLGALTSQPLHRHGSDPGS
# [45] = Acute toxicity in 10 to 14 hr fasted Sprague-Dawley rat assessed as maximum tolerated dose administered orally via gavage; settings: in vivo, time 10-14 hrs, route po
# [46] = tested on: Mycobacterium tuberculosis; assay type: functional, H37Rv; settings: dose 200 mg/kg; route po; time 4 weeks
# [47] = tested on: Mycobacterium tuberculosis; test: Antibacterial activity against Mycobacterium tuberculosis Erdman in acute Mtb infection BALB/c mouse model assessed as reduction in log10 CFU in lungs at 50 mg/kg, po via gavage for 8 weeks; assay type: functional
smiles,measurement,setting,value
CC1(C)CCC(OC(=O)Nc2cc(O)cc(Cc3ccccc3)c2)CC1,CC50,A549,64 µM
same,half-life,[1],1.8 min
same,Activity,[2],1.3 log10RLU
same,MIC90,[3],1.8 µM
O=[N+]([O-])c1cc2cccnc2c2ncccc12,MIC99,[4],0.78 µM
same,CC50 at 96 h,[5],> 25 µM
Cc1cnc2c(c1)cc([N+](=O)[O-])c1cccnc12,MIC99,[4],0.2 µM
same,Activity,[6],1 log10CFU
O=C1C=CN(c2c(F)cc(N3C[C@H](CNc4ccon4)OC3=O)c(F)c2F)CC1 [CONTEZOLID],MIC,[7],1.2 µM
same,Activity,[8],2.3 log10CFU
CCSc1nc(NC)c2ccc(F)c(F)c2n1,MIC90,[9],0.2 µM
same,Activity,[10],0.5 log10CFU
same,CC50,HepG2 [11],153 µM
CCSc1ncc(CN2CCN(c3nc4ccccc4o3)CC2)cn1,Activity,[12],0.7 log10CFU
same,Activity,[13],54%
same,CC50 at 72 h,[14],> 141 µM
same,solubility kinetic,[15],76 µM
same,half-life,[16],49 min
same,fraction unbound,[17],0.03
same,Activity,[18],0.9 log10CFU
CN(C)CCOc1ncc(Nc2cc(-c3ccccc3)nc3cc(-c4ccc(F)cc4)nn23)cc1F,IC50,[19],0.5 µM
same,Activity,[20],1.5 log10CFU
same,MIC80,[3],6.2 µM
CC(=O)NC[C@@H]1OC(=O)N2c3cc(F)c(N4CCSCC4)cc3OC[C@@H]12,MIC90,[21],0.08 µM
same,Activity,[22],5.1 log10CFU
same,Activity,[23],>=3 log10CFU
Cc1cn2c(C(=O)NCc3ccc(N4CCN(c5ccc(C(F)(F)F)cn5)CC4)c(F)c3)c(C)nc2s1,MIC90,[24],0.008 µM
same,Activity,[25],0.6 log10CFU
same,MIC,[26],1.1 µM
same,CC50 at 48 h,[27],> 100 µM
same,solubility,[28],50 µM
same,half-life,[29],28 min
same,Papp,[30],< 1 ×10⁻⁶ cm/s
same,half-life,[31],> 1440 min
same,Activity,[32],0.3 log10CFU
same,Activity,[33],0.3 log10CFU
CC(C)c1ccc(-c2nc(CN3CCN(c4ccnc5cc(-c6cccnc6)ccc45)CC3)no2)cc1,MIC,[9],1 µM
same,Activity,[34],0.6 log10CFU
same,CC50,HepG2 [35],> 130 µM
same,IC50,Cytochrome P450 3A4,> 25 µM
same,remaining at 1 h,[36],40%
same,remaining at 1 h,[37],1.2%
COc1ccn2nc(C)c(C(=O)NCc3ccc(N4CCC(c5ccc(OC(F)(F)F)cc5)CC4)cc3)c2c1,MIC90,[38],0.011 µM
same,Activity,[39],2.2 log10CFU
same,CC50 at 72 h,[40],> 100 µM
same,CC50 at 72 h,[41],> 100 µM
same,half-life,[42],1140 min
same,bioavailability,[43],94%
same,IC50,[44],> 30 µM
same,MTD,[45],> 2000 mg/kg
same,Activity,[46],2.2 log10CFU
same,Activity,[47],0.3 log10CFU
